How the values were obtained:
Assay in all cases: NCI in vitro anticancer screen, SRB assay, 48 h, panel average
Format in all cases: cell-based, human
Settings in all cases: average of six to eight cell lines, 48 h exposure
Colon cancer cell lines = system: Colon cancer cell lines
Experimental: (§1) Biological Activity: The in vitro cell line studies were carried out at the National Cancer Institute, Maryland, USA.
(§2) Cytotoxicity: • The compounds 6b) 7-Methoxy-8-{4-[1-(4-fluorophenyl)-3-(4-hydroxy-3-methoxyphenyl)-2-propen-1-one]butyl}-oxy-(11aS)-1,2,3,11a-5H-pyrrolo[2,1-c][1,4]benzodiazepin-5-one; • (6c) 7-Methoxy-8-{5-[1-(4-fluorophenyl)-3-(4-hydroxy-3-methoxyphenyl)-2-propen-1-one]pentyl}-oxy-(11aS)-1,2,3,11a-5H-pyrrolo[2,1-c][1,4]benzodiazepin-5-one; • (6g) 7-Methoxy-8-{3-[1-(2-hydroxyphenyl)-3-(4-hydroxy-3-methoxyphenyl)-2-propen-1-one]propyl}-oxy-(11aS)-1,2,3,11a-5H-pyrrolo[2,1-c][1,4]benzodiazepin-5-one; • (10a) 7-Methoxy-8-{3-[3-(4-hydroxy-3-methoxyphenyl)-1-(2,4-dimethyl-3-quinolyl)-2-propen-1-one]propyl}-oxy-(11aS)-1,2,3,11a-5H-pyrrolo[2,1-c][1,4]benzodiazepin-5-one • (10b) 7-Methoxy-8-{4-[3-(4-hydroxy-3-methoxyphenyl)-1-(2,4-dimethyl-3-quinolyl)-2-propen-1-one]butyl}-oxy-(11aS)-1,2,3,11a-5H-pyrrolo[2,1-c][1,4]benzodiazepin-5-one; were evaluated for in vitro anticancer activity against […] derived from […] (leukemia, ovarian, renal, melanoma, CNS, colon, prostate, lung, cervix and breast cancer) as shown in (Table 1, 2 and 3)
(§3) 6b, 6c, 6g, 10a and 10b were evaluated for in vitro anticancer activity against sixty human tumour cells derived from nine cancer types (leukemia, non-small-cell lung, colon, CNS, melanoma, ovarian, prostate, renal and breast cancer) as shown in (Table 1 and 2). For the compound, dose response curves for each cell line were measured at a minimum of five concentrations at 10 fold dilutions. A protocol of 48 h continuous drug exposure was used and a sulforhodamine B (SRB) protein assay was used to estimate cell viability or growth. The concentration causing 50% cell growth inhibition (GI50), total cell growth inhibition (TGI 0% growth) and 50% cell death (LC50, −50% growth) compared with the control was calculated.
(§4) Each cancer type represents the average of six to eight different cancer cell lines.

Breast cancer cell lines = system: Breast cancer cell lines
Experimental: as §1, §2, §3, §4

[1] = system: Melanoma cancer cell lines
Experimental: as §1, §2, §3, §4

CNS cancer cell lines = system: CNS cancer cell lines
Experimental: as §1, §2, §3, §4

[2] = system: Ovarian cancer cell lines
Experimental: as §1, §2, §3, §4

[3] = system: Leukemia cancer cell lines
Experimental: as §1, §2, §3, §4

[4] = system: Prostate cancer cell lines
Experimental: as §1, §2, §3, §4

Renal cancer cell lines = system: Renal cancer cell lines
Experimental: as §1, §2, §3, §4

[5] = system: Non-small cell lung cancer cell lines
Experimental: as §1, §2, §3, §4

Structure (SMILES) | Log GI50 (concentration in mol/L causing 50% growth inhibition) (Colon cancer cell lines) [mol/L] | Log GI50 (concentration in mol/L causing 50% growth inhibition) (Breast cancer cell lines) [mol/L] | Log GI50 (concentration in mol/L causing 50% growth inhibition) [1] [mol/L] | Log GI50 (concentration in mol/L causing 50% growth inhibition) (CNS cancer cell lines) [mol/L] | Log GI50 (concentration in mol/L causing 50% growth inhibition) [2] [mol/L] | Log GI50 (concentration in mol/L causing 50% growth inhibition) [3] [mol/L] | Log GI50 (concentration in mol/L causing 50% growth inhibition) [4] [mol/L] | Log GI50 (concentration in mol/L causing 50% growth inhibition) (Renal cancer cell lines) [mol/L] | Log GI50 (concentration in mol/L causing 50% growth inhibition) [5] [mol/L]
COc1cc(C=CC(=O)c2ccc(F)cc2)ccc1OCCCCOc1cc2c(cc1OC)C(=O)N1CCC[C@H]1C=N2 [6b, 7-Methoxy-8-{4-[1-(4-fluorophenyl)-3-(4-hydroxy-3-methoxyphenyl)-2-propen-1-one]butyl}-oxy-(11aS)-1,2,3,11a-5H-pyrrolo[2,1-c][1,4]benzodiazepin-5-one] | −6.53 | −6.57 | −6.65 | −5.91 | −5.56 | −6.84 | −5.63 | −6.67 | −6.84
COc1cc(C=CC(=O)c2ccc(F)cc2)ccc1OCCCCCOc1cc2c(cc1OC)C(=O)N1CCC[C@H]1C=N2 [6c, 7-Methoxy-8-{5-[1-(4-fluorophenyl)-3-(4-hydroxy-3-methoxyphenyl)-2-propen-1-one]pentyl}-oxy-(11aS)-1,2,3,11a-5H-pyrrolo[2,1-c][1,4]benzodiazepin-5-one] | −6.76 | −6.31 | −6.38 | −5.68 | −4.60 | −6.59 | −5.05 | −6.39 | −6.38
COc1cc(C=CC(=O)c2c(C)nc3ccccc3c2C)ccc1OCCCOc1cc2c(cc1OC)C(=O)N1CCC[C@H]1C=N2 [10a, 7-Methoxy-8-{3-[3-(4-hydroxy-3-methoxyphenyl)-1-(2,4-dimethyl-3-quinolyl)-2-propen-1-one]propyl}-oxy-(11aS)-1,2,3,11a-5H-pyrrolo[2,1-c][1,4]benzodiazepin-5-one] | −6.76 | −6.31 | −6.38 | −6.61 | −5.10 | −6.88 | −5.05 | −6.39 | −6.79
COc1cc(C=CC(=O)c2c(C)nc3ccccc3c2C)ccc1OCCCCOc1cc2c(cc1OC)C(=O)N1CCC[C@H]1C=N2 [10b, 7-Methoxy-8-{4-[3-(4-hydroxy-3-methoxyphenyl)-1-(2,4-dimethyl-3-quinolyl)-2-propen-1-one]butyl}-oxy-(11aS)-1,2,3,11a-5H-pyrrolo[2,1-c][1,4]benzodiazepin-5-one] | −6.41 | −6.52 | −6.59 | −6.16 | −5.28 | −6.94 | −5.85 | −6.17 | −6.87

Reference: US8461150B2, “Chalcone linked pyrrolo[2,1-c][1, 4]benzodiazepine hybrids as potential anticancer agents and process for the preparation thereof” (Council of Scientific & Industrial Research, priority 2008, dated 2013)
